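Tested at 5 concentrations; 48 h exposure; 96-well plates; endpoints linearly interpolated, else capped at highest concentration. Abbreviation: GI50, concentration required for 50% inhibition of growth.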 Active and inactive are the calls of the source. Rule as the data show it: active = GI50 up to about 1.1 µM and inactive = higher.
Experiments:
Test in all cases: NCI tumour cell line growth inhibition, 48 h
HT-29 = test system: HT-29
DU-145 = test system: DU-145
U-251 = test system: U-251
NCI-H460 = test system: NCI-H460
HOP-62 = test system: HOP-62
786-0 = test system: 786-0
A498 = test system: A498
KM12 = test system: KM12
HOP-92 = test system: HOP-92
PC-3 = test system: PC-3
MDA-MB-435 = test system: MDA-MB-435
LOX IMVI = test system: LOX IMVI
MCF7 = test system: MCF7
SF-295 = test system: SF-295
SR = test system: SR
UO-31 = test system: UO-31
OVCAR-4 = test system: OVCAR-4
SK-OV-3 = test system: SK-OV-3
SK-MEL-5 = test system: SK-MEL-5
BT-549 = test system: BT-549
COLO 205 = test system: COLO 205
SF-268 = test system: SF-268
CAKI-1 = test system: CAKI-1
TK-10 = test system: TK-10
UACC-257 = test system: UACC-257
MOLT-4 = test system: MOLT-4
SN12C = test system: SN12C
MDA-N = test system: MDA-N
SF-539 = test system: SF-539
T47D = test system: T47D
M14 = test system: M14
OVCAR-3 = test system: OVCAR-3
MDA-MB-231 = test system: MDA-MB-231
HCC 2998 = test system: HCC 2998
ACHN = test system: ACHN
SW-620 = test system: SW-620
A549 = test system: A549
NCI/ADR-RES = test system: NCI/ADR-RES
SNB-19 = test system: SNB-19
HCT-15 = test system: HCT-15
EKVX = test system: EKVX
NCI-H23 = test system: NCI-H23
SNB-75 = test system: SNB-75
NCI-H522 = test system: NCI-H522
SK-MEL-2 = test system: SK-MEL-2
SK-MEL-28 = test system: SK-MEL-28
OVCAR-5 = test system: OVCAR-5
OVCAR-8 = test system: OVCAR-8
HCT-116 = test system: HCT-116
UACC-62 = test system: UACC-62
Hs-578T = test system: Hs-578T
NCI-H226 = test system: NCI-H226
IGROV-1 = test system: IGROV-1
CCRF-CEM = test system: CCRF-CEM
K562 = test system: K562
RPMI-8226 = test system: RPMI-8226
HL-60 = test system: HL-60

Cc1c2c(n(Cc3ccccn3)c1C)NN=C(C#N)S2(=O)=O
GI50 (HT-29): > 100 µM (inactive)
GI50 (DU-145): > 100 µM (inactive)
GI50 (U-251): > 100 µM (inactive)
GI50 (NCI-H460): > 100 µM (inactive)
GI50 (HOP-62): > 100 µM (inactive)
GI50 (786-0): > 100 µM (inactive)
GI50 (A498): > 100 µM (inactive)
GI50 (KM12): > 100 µM (inactive)
GI50 (HOP-92): > 100 µM (inactive)
GI50 (PC-3): > 100 µM (inactive)
GI50 (MDA-MB-435): > 100 µM (inactive)
GI50 (LOX IMVI): > 100 µM (inactive)
GI50 (MCF7): > 100 µM (inactive)
GI50 (SF-295): > 100 µM (inactive)
GI50 (SR): > 100 µM (inactive)
GI50 (UO-31): > 100 µM (inactive)
GI50 (OVCAR-4): > 100 µM (inactive)
GI50 (SK-OV-3): > 100 µM (inactive)
GI50 (SK-MEL-5): > 100 µM (inactive)
GI50 (BT-549): > 100 µM (inactive)
GI50 (COLO 205): > 100 µM (inactive)
GI50 (SF-268): > 100 µM (inactive)
GI50 (CAKI-1): > 100 µM (inactive)
GI50 (TK-10): > 100 µM (inactive)
GI50 (UACC-257): > 100 µM (inactive)
GI50 (MOLT-4): > 100 µM (inactive)
GI50 (SN12C): > 100 µM (inactive)
GI50 (MDA-N): > 100 µM (inactive)
GI50 (SF-539): > 100 µM (inactive)
GI50 (T47D): > 100 µM (inactive)
GI50 (M14): > 100 µM (inactive)
GI50 (OVCAR-3): > 100 µM (inactive)
GI50 (MDA-MB-231): > 100 µM (inactive)
GI50 (HCC 2998): > 100 µM (inactive)
GI50 (ACHN): > 100 µM (inactive)
GI50 (SW-620): > 100 µM (inactive)
GI50 (A549): > 100 µM (inactive)
GI50 (NCI/ADR-RES): > 100 µM (inactive)
GI50 (SNB-19): > 100 µM (inactive)
GI50 (HCT-15): > 100 µM
GI50 (EKVX): > 100 µM (inactive)
GI50 (NCI-H23): > 100 µM (inactive)
GI50 (SNB-75): > 100 µM (inactive)
GI50 (NCI-H522): > 100 µM (inactive)
GI50 (SK-MEL-2): > 100 µM (inactive)
GI50 (SK-MEL-28): > 100 µM (inactive)
GI50 (OVCAR-5): > 100 µM (inactive)
GI50 (OVCAR-8): > 100 µM (inactive)
GI50 (HCT-116): > 100 µM (inactive)
GI50 (UACC-62): > 100 µM (inactive)
GI50 (Hs-578T): > 100 µM (inactive)
GI50 (NCI-H226): > 100 µM (inactive)
GI50 (IGROV-1): > 100 µM (inactive)

CC(=O)OC1COC(Nn2c(=O)[nH]c3ccccc3c2=O)C(OC(C)=O)C1OC(C)=O (configuration not stated)
GI50 (HT-29): > 100 µM (inactive)
GI50 (DU-145): > 100 µM (inactive)
GI50 (U-251): > 100 µM (inactive)
GI50 (NCI-H460): > 100 µM (inactive)
GI50 (HOP-62): > 100 µM (inactive)
GI50 (786-0): > 100 µM (inactive)
GI50 (CCRF-CEM): > 100 µM (inactive)
GI50 (A498): > 100 µM (inactive)
GI50 (KM12): 39.4 µM (inactive)
GI50 (HOP-92): > 100 µM (inactive)
GI50 (PC-3): > 100 µM (inactive)
GI50 (MDA-MB-435): > 100 µM (inactive)
GI50 (LOX IMVI): > 100 µM (inactive)
GI50 (MCF7): > 100 µM (inactive)
GI50 (SF-295): > 100 µM (inactive)
GI50 (SR): > 100 µM (inactive)
GI50 (UO-31): 81.1 µM (inactive)
GI50 (SK-OV-3): > 100 µM (inactive)
GI50 (SK-MEL-5): > 100 µM (inactive)
GI50 (BT-549): > 100 µM (inactive)
GI50 (COLO 205): > 100 µM (inactive)
GI50 (SF-268): > 100 µM (inactive)
GI50 (CAKI-1): > 100 µM (inactive)
GI50 (TK-10): > 100 µM (inactive)
GI50 (UACC-257): > 100 µM (inactive)
GI50 (MOLT-4): > 100 µM (inactive)
GI50 (SN12C): > 100 µM (inactive)
GI50 (MDA-N): > 100 µM (inactive)
GI50 (SF-539): > 100 µM (inactive)
GI50 (T47D): 47.1 µM (inactive)
GI50 (M14): > 100 µM (inactive)
GI50 (K562): > 100 µM (inactive)
GI50 (OVCAR-3): > 100 µM (inactive)
GI50 (MDA-MB-231): > 100 µM (inactive)
GI50 (ACHN): > 100 µM (inactive)
GI50 (SW-620): > 100 µM (inactive)
GI50 (A549): > 100 µM (inactive)
GI50 (NCI/ADR-RES): 17.9 µM (inactive)
GI50 (SNB-19): > 100 µM (inactive)
GI50 (HCT-15): > 100 µM
GI50 (EKVX): 36.1 µM (inactive)
GI50 (RPMI-8226): > 100 µM (inactive)
GI50 (NCI-H23): > 100 µM (inactive)
GI50 (SNB-75): 30.3 µM (inactive)
GI50 (HL-60): > 100 µM (inactive)
GI50 (SK-MEL-2): > 100 µM (inactive)
GI50 (SK-MEL-28): > 100 µM (inactive)
GI50 (OVCAR-5): > 100 µM (inactive)
GI50 (OVCAR-8): 86.9 µM (inactive)
GI50 (HCT-116): > 100 µM (inactive)
GI50 (UACC-62): > 100 µM (inactive)
GI50 (Hs-578T): 13.6 µM (inactive)
GI50 (NCI-H226): 51.9 µM (inactive)
GI50 (IGROV-1): > 100 µM (inactive)

— ChEMBL document CHEMBL1201862, “PubChem BioAssay data set” (2004)
